Assay results taken from patent publication US20140323306A1, “Substituted 1,2,5-Oxadiazole Compounds and Their Use as Herbicides” (BASF SE, priority 2011, published 2014).

Tested on: CHEAL
Experiment: Greenhouse herbicidal test, post-emergence treatment
Type: in vivo, Chenopodium album
Conditions: post-emergence method, application rate 0.25 kg/ha; scale from 0 to 100
Source text: The seeds of the test plants were shown separately for each species. For the post-emergence treatment, the test plants were first grown to a height of 3 to 15 cm, depending on the plant habit, and only then treated with the active ingredients which had been suspended or emulsified in water. For this purpose, the test plants were either shown directly and grown in the same containers, or they were first grown separately as seedlings and transplanted into the test containers a few days prior to treatment. Depending on the species, the plants were kept at 10-25° C. or 20-35° C. The test period extended over 2 to 4 weeks. During this time, the plants were tended, and their response to the individual treatments was evaluated. Evaluation was carried out using a scale from 0 to 100. 100 means no emergence of the plants, or complete destruction of at least the aerial moieties, and 0 means no damage, or normal course of growth. A good herbicidal activity is given at values of at least 70 and a very good herbicidal activity is given at values of at least 85. The plants used in the greenhouse experiments belonged to the following species: [table]

Cc1nonc1NC(=O)c1c(Cl)cc(Cl)cc1Cl [I′.A-2, 2,4,6-trichloro-N-(4-methyl-1,2,5-oxadiazol-3-yl)benzamide]
herbicidal activity against CHEAL: very good (a very good herbicidal activity is given at values of at least 85)
